From patent publication US12371454B2, “Cyclic peptide compound having Kras inhibitory action” (priority 2019, dated 2025)
pIC50: −log10 of the molar value. Starred links: 1 amine or outer side, 2 acyl side, 3 side chain; linkers in the order of their positions; H or OH if unused. Positions of bridges follow the written chain, without caps; N, C: chain ends. Non-standard residues stand in square brackets, D forms with d. Residues, ends and D or L forms follow the SMILES beside them. *: point of attachment. hPhe(3,5-F2-4-CF3) = N[C@@H](CCc1cc(F)c(C(F)(F)F)c(F)c1)C(=O)O; hPhe(3-Cl-4-CF3) = N[C@@H](CCc1ccc(C(F)(F)F)c(Cl)c1)C(=O)O; NMePhe(4-CF3) = CN[C@@H](Cc1ccc(C(F)(F)F)cc1)C(=O)O; Piperazinyl(4-(3-oxetanyl)) = C1OCC1N1CCN(*)CC1; 3Oxa8azabicyclo(3.2.1)octane = C1CC2COCC1N2*; NEtPhe(4-Me) = CCN[C@@H](Cc1ccc(C)cc1)C(=O)O; NMeAbu(4,4,4-F3) = CN[C@@H](CC(F)(F)F)C(=O)O; NMePhe(4-Cl) = CN[C@@H](Cc1ccc(Cl)cc1)C(=O)O; X55 = C[C@@](Cc1cccc(I)c1)(N[*:1])C(=O)[*:2]; X77 = O=C([C@H](Cc1cc(Br)ccc1Cl)N[*:1])[*:2]; X18 = Cc1ccc(Br)cc1C[C@H](N[*:1])C(=O)[*:2]; Phe(2,6-F2) = N[C@@H](Cc1c(F)cccc1F)C(=O)O; NMeGly(cPent) = CN[C@H](C(=O)O)C1CCCC1; Pro(4,4-F2) = O=C(O)[C@@H]1CC(F)(F)CN1; NMeY = CN[C@@H](Cc1ccc(O)cc1)C(=O)O; NMeCha = CN[C@@H](CC1CCCCC1)C(=O)O; NMeChg = CN[C@H](C(=O)O)C1CCCCC1; NMeI = CC[C@H](C)[C@H](NC)C(=O)O; NMeD = CN[C@@H](CC(=O)O)C(=O)O; NMeL = CN[C@@H](CC(C)C)C(=O)O; NMeAbu = CC[C@H](NC)C(=O)O; Morpholide = C1CN(*)CCO1; NMeA = CN[C@@H](C)C(=O)O; NMeAib = CNC(C)(C)C(=O)O; Nle = CCCC[C@H](N)C(=O)O; Piperidide = C1CCN(*)CC1; Pyrrolidide = C1CCN(*)C1; Ac5c = NC1(C(=O)O)CCCC1; Aze = O=C(O)[C@@H]1CCN1; Ac4c = NC1(C(=O)O)CCC1; Sar = CNCC(=O)O

Target: T1, Kras and SOS1 (biotin-tagged human Kras loaded with GDP, His-tagged human SOS1) (Homo sapiens, UniProt P01116, G12D)
T1 construct: made in house; host or cells: E. coli (stated for Kras only)
T1 sequence (P01116 1-188 isoform P01116-2 G12D): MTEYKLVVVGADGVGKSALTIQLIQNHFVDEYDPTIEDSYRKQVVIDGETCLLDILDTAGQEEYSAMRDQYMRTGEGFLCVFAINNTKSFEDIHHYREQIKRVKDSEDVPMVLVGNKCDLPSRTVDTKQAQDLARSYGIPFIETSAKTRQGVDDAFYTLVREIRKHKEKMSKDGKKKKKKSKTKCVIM
Experiment: Protein-protein interaction inhibition between Kras and SOS1 (KrasGl2D-SOS PPI) using AlphaScreen
Assay type: binding
Details: AlphaScreen; biotin-tagged human Kras loaded with GDP, His-tagged human SOS1; read-out: KRAS G12D-SOS PPI IC50
Method in brief: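 Energy transfer from nickel-chelate donor beads bound to His-SOS1 to streptavidin acceptor beads bound to biotin-Kras, expressed in E. coli and loaded with GDP after purification, was monitored. Donors were excited at 680 nm; singlet oxygen reaching acceptors gave emission read at 520-620 nm.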

Row | Compound | pIC50
1 | CCCC[C@@H]1NC(=O)[C@H](Cc2c(F)cccc2F)NC(=O)CN(C)C(=O)[C@H](Cc2ccc(OC)cc2)N(C)C(=O)[C@@H]2CCN2C(=O)[C@H](C)N(C)C(=O)[C@H]([C@@H](C)CC)NC(=O)[C@H](CC)N(C)C(=O)C[C@@H](C(=O)N2CCCCC2)N(C)C(=O)[C@H](CC(C)C)NC(=O)C(C)(C)N(C)C1=O [Compound 1187] ([NMeAbu]I[NMeA][Aze][NMeY](Me)[Sar][Phe(2,6-F2)][Nle][NMeAib]L[NMeD]-Piperidide; lactam N-11) | 7.00
2 | CC[C@H](C)[C@@H]1NC(=O)[C@H](CC(C)C)N(C)C(=O)C[C@@H](C(=O)N2CCN(C3COC3)CC2)NC(=O)[C@H]([C@@H](C)CC)N(C)C(=O)C2(CCCC2)NC(=O)[C@@H]2CCCN2C(=O)[C@H](CCc2ccc(C(F)(F)F)c(Cl)c2)NC(=O)CN(C)C(=O)[C@H](CC2CCCCC2)N(C)C(=O)CN(C)C(=O)CN(C)C1=O [Compound 1191] ([NMeL]I[Sar][Sar][NMeCha][Sar][hPhe(3-Cl-4-CF3)]P[Ac5c][NMeI]D-{Piperazinyl(4-(3-oxetanyl))}; lactam N-11) | 8.17
3 | CC[C@H](C)[C@@H]1NC(=O)[C@H](CC(C)C)N(C)C(=O)C[C@@H](C(=O)N2CCCC2)N(C)C(=O)[C@H](C2CCCCC2)N(C)C(=O)C2(CCC2)NC(=O)[C@@H]2CC(F)(F)CN2C(=O)[C@H](CCc2cc(F)c(C(F)(F)F)c(F)c2)NC(=O)CN(C)C(=O)[C@H](CC2CCCCC2)N(C)C(=O)CN(C)C(=O)CN(C)C1=O [Compound 1192] ([NMeL]I[Sar][Sar][NMeCha][Sar][hPhe(3,5-F2-4-CF3)][Pro(4,4-F2)][Ac4c][NMeChg][NMeD]-Pyrrolidide; lactam N-11) | 9.41
4 | CC[C@H](C)[C@@H]1NC(=O)[C@H](CC(C)C)N(C)C(=O)C[C@@H](C(=O)N2CCOCC2)N(C)C(=O)[C@H](C2CCCCC2)N(C)C(=O)C2(CCCC2)NC(=O)[C@@H]2CC(F)(F)CN2C(=O)[C@H](CCc2ccc(C(F)(F)F)c(Cl)c2)NC(=O)CN(C)C(=O)[C@H](CC2CCCCC2)N(C)C(=O)CN(C)C(=O)CN(C)C1=O [Compound 1194] ([NMeL]I[Sar][Sar][NMeCha][Sar][hPhe(3-Cl-4-CF3)][Pro(4,4-F2)][Ac5c][NMeChg][NMeD]-Morpholide; lactam N-11) | 9.28
5 | CCCC[C@@H]1NC(=O)[C@H](Cc2cc(Br)ccc2C)NC(=O)CN(C)C(=O)[C@H](Cc2ccc(OC)cc2)N(C)C(=O)[C@@H]2CCN2C(=O)[C@H](C)N(C)C(=O)[C@H]([C@@H](C)CC)NC(=O)[C@H](CC)N(C)C(=O)C[C@@H](C(=O)N2CCCCC2)N(C)C(=O)[C@H](CC(C)C)NC(=O)C(C)(C)N(C)C1=O [Compound 1195] ([NMeAbu]I[NMeA][Aze][NMeY](Me)[Sar][X18][Nle][NMeAib]L[NMeD]-Piperidide; lactam N-11) | 7.42
6 | CC[C@H](C)[C@@H]1NC(=O)[C@H](CC(F)(F)F)N(C)C(=O)C[C@@H](C(=O)N2CCCC2)N(C)C(=O)[C@H](C2CCCCC2)N(C)C(=O)C2(CCCC2)NC(=O)[C@@H]2CC(F)(F)CN2C(=O)[C@H](CCc2ccc(C(F)(F)F)c(Cl)c2)NC(=O)CN(C)C(=O)[C@H](Cc2ccc(C(F)(F)F)cc2)N(C)C(=O)CN(C)C(=O)CN(C)C1=O [Compound 1196] ([NMeAbu(4,4,4-F3)]I[Sar][Sar][NMePhe(4-CF3)][Sar][hPhe(3-Cl-4-CF3)][Pro(4,4-F2)][Ac5c][NMeChg][NMeD]-Pyrrolidide; lactam N-11) | 9.32
7 | CCCC[C@@H]1NC(=O)[C@](C)(Cc2cccc(I)c2)NC(=O)CN(C)C(=O)[C@H](Cc2ccc(Cl)cc2)N(C)C(=O)CN(C)C(=O)CN(C)C(=O)[C@H]([C@@H](C)CC)NC(=O)[C@H](CC(C)C)N(C)C(=O)C[C@@H](C(=O)N2CCCCC2)N(C)C(=O)[C@H](CC(C)C)NC(=O)C(C)(C)N(C)C1=O [Compound 1202] ([NMeL]I[Sar][Sar][NMePhe(4-Cl)][Sar][X55][Nle][NMeAib]L[NMeD]-Piperidide; lactam N-11) | 6.62
8 | CCCC[C@@H]1NC(=O)[C@H](Cc2cc(Br)ccc2Cl)NC(=O)CN(C)C(=O)[C@H](Cc2ccc(OC)cc2)N(C)C(=O)[C@@H]2CCN2C(=O)[C@H](C)N(C)C(=O)[C@H]([C@@H](C)CC)NC(=O)[C@H](CC)N(C)C(=O)C[C@@H](C(=O)N2CCCCC2)N(C)C(=O)[C@H](CC(C)C)NC(=O)C(C)(C)N(C)C1=O [Compound 1212] ([NMeAbu]I[NMeA][Aze][NMeY](Me)[Sar][X77][Nle][NMeAib]L[NMeD]-Piperidide; lactam N-11) | 6.92
9 | CC[C@H](C)[C@@H]1NC(=O)[C@H](CC(C)C)N(C)C(=O)C[C@@H](C(=O)N2C3CCC2COC3)N(C)C(=O)[C@H](C2CCCC2)N(C)C(=O)C2(CCCC2)NC(=O)[C@@H]2CCCN2C(=O)[C@H](CCc2cc(F)c(C(F)(F)F)c(F)c2)NC(=O)CN(C)C(=O)[C@H](Cc2ccc(C)cc2)N(CC)C(=O)[C@@H]2CCN2C(=O)[C@H](C)N(C)C1=O [Compound 1215] ([NMeL]I[NMeA][Aze][NEtPhe(4-Me)][Sar][hPhe(3,5-F2-4-CF3)]P[Ac5c][NMeGly(cPent)][NMeD]-{3Oxa8azabicyclo(3.2.1)octane}; lactam N-11) | 8.74
